Laboratory results taken from PubChem BioAssay AID1919002 (Molecular Pharmacology Branch, DTP, NCI, 2023).

Test system: 743489-274-T-PDC complex spheroid growth
Experiment: Anticancer human tumor 743489-274-T-PDC patient-derived renal cell carcinoma cell line growth inhibition [AhR]
Conditions: for IC50: curve of first compound; for viability, T/C: stronger effect = lower value
Outline: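 Spheroids combined tumor cells with HUVEC endothelial cells and human MSCs as stroma. AhR antagonists were paired with standard or investigational drugs, each dosed in half-log steps down from near clinical Cmax, or from 10 microM where Cmax was unknown.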

[1] = second compound 0.1 µM, first compound 0.0316 µM
[2] = second compound 0.1 µM, first compound 0.1 µM
[3] = second compound 0.1 µM, first compound 0.316 µM
[4] = second compound 0.1 µM, first compound 1 µM
[5] = second compound 0.1 µM, first compound 3.16 µM
[6] = second compound 0.1 µM, first compound 10 µM
[7] = second compound 0.316 µM, first compound 0.0316 µM
[8] = second compound 0.316 µM, first compound 0.1 µM
[9] = second compound 0.316 µM, first compound 0.316 µM
[10] = second compound 0.316 µM, first compound 1 µM
[11] = second compound 0.316 µM, first compound 3.16 µM
[12] = second compound 0.316 µM, first compound 10 µM
[13] = second compound 1 µM, first compound 0.0316 µM
[14] = second compound 1 µM, first compound 0.1 µM
[15] = second compound 1 µM, first compound 0.316 µM
[16] = second compound 1 µM, first compound 1 µM
[17] = second compound 1 µM, first compound 3.16 µM
[18] = second compound 1 µM, first compound 10 µM
[19] = second compound 3.16 µM, first compound 0.0316 µM
[20] = second compound 3.16 µM, first compound 0.1 µM
[21] = second compound 3.16 µM, first compound 0.316 µM
[22] = second compound 3.16 µM, first compound 1 µM
[23] = second compound 3.16 µM, first compound 3.16 µM
[24] = second compound 3.16 µM, first compound 10 µM
[25] = second compound 10 µM, first compound 0.0316 µM
[26] = second compound 10 µM, first compound 0.1 µM
[27] = second compound 10 µM, first compound 0.316 µM
[28] = second compound 10 µM, first compound 1 µM
[29] = second compound 10 µM, first compound 3.16 µM
[30] = second compound 10 µM, first compound 10 µM
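Further: spheroids exposed to agents for 7 days before readout.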
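Wherever viability, T/C is given: 100% = DMSO vehicle control wells.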

## CC(C)c1c(-c2ccccc2)nc2c(C#N)c[nH]n2c1=O + Cc1ccccc1N=Nc1ccc(NC(=O)c2ccnn2C)c(C)c1
Second compound 0.1 µM
  IC50: > 10 µM
Second compound 0.316 µM
  IC50: > 10 µM
Second compound 1 µM
  IC50: > 10 µM
Second compound 3.16 µM
  IC50: > 10 µM
Second compound 10 µM
  IC50: > 10 µM
[1]
  viability, T/C: 102%
[2]
  viability, T/C: 103%
[3]
  viability, T/C: 93.3%
[4]
  viability, T/C: 96%
[5]
  viability, T/C: 109%
[6]
  viability, T/C: 99.4%
[7]
  viability, T/C: 102%
[8]
  viability, T/C: 102%
[9]
  viability, T/C: 101%
[10]
  viability, T/C: 94.1%
[11]
  viability, T/C: 100%
[12]
  viability, T/C: 91.3%
[13]
  viability, T/C: 111%
[14]
  viability, T/C: 93.8%
[15]
  viability, T/C: 108%
[16]
  viability, T/C: 109%
[17]
  viability, T/C: 95.7%
[18]
  viability, T/C: 96.2%
[19]
  viability, T/C: 94.3%
[20]
  viability, T/C: 98.1%
[21]
  viability, T/C: 94.5%
[22]
  viability, T/C: 103%
[23]
  viability, T/C: 104%
[24]
  viability, T/C: 90.4%
[25]
  viability, T/C: 92.2%
[26]
  viability, T/C: 99.2%
[27]
  viability, T/C: 104%
[28]
  viability, T/C: 93.2%
[29]
  viability, T/C: 85.8%
[30]
  viability, T/C: 86.9%

## CC1COCCN1c1cc(-c2ccnn2C)c2ccnc(-c3ccn[nH]3)c2n1 (stereo not given) + Cc1ccccc1N=Nc1ccc(NC(=O)c2ccnn2C)c(C)c1
Second compound 0.1 µM
  IC50: > 1 µM
Second compound 0.316 µM
  IC50: > 1 µM
Second compound 1 µM
  IC50: > 1 µM
Second compound 3.16 µM
  IC50: > 1 µM
Second compound 10 µM
  IC50: > 1 µM
Second compound 0.1 µM, first compound 0.00316 µM
  viability, T/C: 92.8%
Second compound 0.1 µM, first compound 0.01 µM
  viability, T/C: 94.4%
[1]
  viability, T/C: 93.9%
[2]
  viability, T/C: 95.9%
[3]
  viability, T/C: 88.5%
[4]
  viability, T/C: 78.4%
Second compound 0.316 µM, first compound 0.00316 µM
  viability, T/C: 89.7%
Second compound 0.316 µM, first compound 0.01 µM
  viability, T/C: 101%
[7]
  viability, T/C: 89.6%
[8]
  viability, T/C: 93.3%
[9]
  viability, T/C: 99.2%
[10]
  viability, T/C: 75.3%
Second compound 1 µM, first compound 0.00316 µM
  viability, T/C: 93.4%
Second compound 1 µM, first compound 0.01 µM
  viability, T/C: 98.5%
[13]
  viability, T/C: 92%
[14]
  viability, T/C: 86.5%
[15]
  viability, T/C: 88.2%
[16]
  viability, T/C: 68.1%
Second compound 3.16 µM, first compound 0.00316 µM
  viability, T/C: 87.6%
Second compound 3.16 µM, first compound 0.01 µM
  viability, T/C: 86.8%
[19]
  viability, T/C: 88%
[20]
  viability, T/C: 82.8%
[21]
  viability, T/C: 76.4%
[22]
  viability, T/C: 76.3%
Second compound 10 µM, first compound 0.00316 µM
  viability, T/C: 103%
Second compound 10 µM, first compound 0.01 µM
  viability, T/C: 94.9%
[25]
  viability, T/C: 96.2%
[26]
  viability, T/C: 84.9%
[27]
  viability, T/C: 73.5%
[28]
  viability, T/C: 58.6%

## COc1ccc([C@@H](O)c2cc(-c3ncnc4cc(N5CCOCC5)ccc34)c(F)cc2Cl)nn1 + Cc1ccccc1N=Nc1ccc(NC(=O)c2ccnn2C)c(C)c1
Second compound 0.1 µM
  IC50: 2.61 µM
Second compound 0.316 µM
  IC50: 2.57 µM
Second compound 1 µM
  IC50: 2.34 µM
Second compound 3.16 µM
  IC50: 2.26 µM
Second compound 10 µM
  IC50: 1.72 µM
[1]
  viability, T/C: 99.7%
[2]
  viability, T/C: 87.6%
[3]
  viability, T/C: 95.7%
[4]
  viability, T/C: 80.1%
[5]
  viability, T/C: 44.1%
[6]
  viability, T/C: 31.9%
[7]
  viability, T/C: 96.2%
[8]
  viability, T/C: 89.1%
[9]
  viability, T/C: 92.4%
[10]
  viability, T/C: 77.2%
[11]
  viability, T/C: 44.1%
[12]
  viability, T/C: 22.4%
[13]
  viability, T/C: 101%
[14]
  viability, T/C: 87%
[15]
  viability, T/C: 86.5%
[16]
  viability, T/C: 68.9%
[17]
  viability, T/C: 42.2%
[18]
  viability, T/C: 22.8%
[19]
  viability, T/C: 84.5%
[20]
  viability, T/C: 81.5%
[21]
  viability, T/C: 87.5%
[22]
  viability, T/C: 77.7%
[23]
  viability, T/C: 38.4%
[24]
  viability, T/C: 19.1%
[25]
  viability, T/C: 86.2%
[26]
  viability, T/C: 90.2%
[27]
  viability, T/C: 81.5%
[28]
  viability, T/C: 62.2%
[29]
  viability, T/C: 36.1%
[30]
  viability, T/C: 18.8%

## O=C(C=Cn1cnc(-c2cc(C(F)(F)F)cc(C(F)(F)F)c2)n1)NNc1cnccn1 + Cc1ccccc1N=Nc1ccc(NC(=O)c2ccnn2C)c(C)c1
Second compound 0.1 µM
  IC50: > 3 µM
Second compound 0.316 µM
  IC50: > 3 µM
Second compound 1 µM
  IC50: > 3 µM
Second compound 3.16 µM
  IC50: > 3 µM
Second compound 10 µM
  IC50: > 3 µM
Second compound 0.1 µM, first compound 0.00949 µM
  viability, T/C: 106%
Second compound 0.1 µM, first compound 0.03 µM
  viability, T/C: 110%
Second compound 0.1 µM, first compound 0.0949 µM
  viability, T/C: 118%
Second compound 0.1 µM, first compound 0.3 µM
  viability, T/C: 140%
Second compound 0.1 µM, first compound 0.949 µM
  viability, T/C: 121%
Second compound 0.1 µM, first compound 3 µM
  viability, T/C: 104%
Second compound 0.316 µM, first compound 0.00949 µM
  viability, T/C: 105%
Second compound 0.316 µM, first compound 0.03 µM
  viability, T/C: 102%
Second compound 0.316 µM, first compound 0.0949 µM
  viability, T/C: 115%
Second compound 0.316 µM, first compound 0.3 µM
  viability, T/C: 133%
Second compound 0.316 µM, first compound 0.949 µM
  viability, T/C: 103%
Second compound 0.316 µM, first compound 3 µM
  viability, T/C: 94%
Second compound 1 µM, first compound 0.00949 µM
  viability, T/C: 97.8%
Second compound 1 µM, first compound 0.03 µM
  viability, T/C: 107%
Second compound 1 µM, first compound 0.0949 µM
  viability, T/C: 128%
Second compound 1 µM, first compound 0.3 µM
  viability, T/C: 140%
Second compound 1 µM, first compound 0.949 µM
  viability, T/C: 110%
Second compound 1 µM, first compound 3 µM
  viability, T/C: 97.1%
Second compound 3.16 µM, first compound 0.00949 µM
  viability, T/C: 102%
Second compound 3.16 µM, first compound 0.03 µM
  viability, T/C: 97.7%
Second compound 3.16 µM, first compound 0.0949 µM
  viability, T/C: 109%
Second compound 3.16 µM, first compound 0.3 µM
  viability, T/C: 127%
Second compound 3.16 µM, first compound 0.949 µM
  viability, T/C: 95.4%
Second compound 3.16 µM, first compound 3 µM
  viability, T/C: 82.5%
Second compound 10 µM, first compound 0.00949 µM
  viability, T/C: 90.8%
Second compound 10 µM, first compound 0.03 µM
  viability, T/C: 85.8%
Second compound 10 µM, first compound 0.0949 µM
  viability, T/C: 99.7%
Second compound 10 µM, first compound 0.3 µM
  viability, T/C: 128%
Second compound 10 µM, first compound 0.949 µM
  viability, T/C: 101%
Second compound 10 µM, first compound 3 µM
  viability, T/C: 79.2%

## COc1cccc2c1C(=O)c1c(O)c3c(c(O)c1C2=O)CC(O)(C(=O)CO)CC3OC1CC(N)C(O)C(C)O1 (stereo not given) + Cc1cncc(-c2nc(NCCc3c[nH]c4ccccc34)c3ncn(C(C)C)c3n2)c1
Second compound 0.1 µM
  IC50: > 10 µM
Second compound 0.316 µM
  IC50: 5.54 µM
Second compound 1 µM
  IC50: 2.47 µM
Second compound 3.16 µM
  IC50: 1.35 µM
Second compound 10 µM
  IC50: 0.825 µM
[1]
  viability, T/C: 92.1%
[2]
  viability, T/C: 92.6%
[3]
  viability, T/C: 90.2%
[4]
  viability, T/C: 80.4%
[5]
  viability, T/C: 96.5%
[6]
  viability, T/C: 50.4%
[7]
  viability, T/C: 89.7%
[8]
  viability, T/C: 92.5%
[9]
  viability, T/C: 88.3%
[10]
  viability, T/C: 84.8%
[11]
  viability, T/C: 70.6%
[12]
  viability, T/C: 28.4%
[13]
  viability, T/C: 89.6%
[14]
  viability, T/C: 97%
[15]
  viability, T/C: 92.2%
[16]
  viability, T/C: 89.6%
[17]
  viability, T/C: 39.2%
[18]
  viability, T/C: 0.75%
[19]
  viability, T/C: 91.3%
[20]
  viability, T/C: 91.6%
[21]
  viability, T/C: 93.6%
[22]
  viability, T/C: 67.6%
[23]
  viability, T/C: 0.25%
[24]
  viability, T/C: 0.22%
[25]
  viability, T/C: 111%
[26]
  viability, T/C: 96%
[27]
  viability, T/C: 93.6%
[28]
  viability, T/C: 42%
[29]
  viability, T/C: 0.4%
[30]
  viability, T/C: 0.25%
